The record followed here is patent US20260258039A1, “AROMATIC COMPOUND, METHOD FOR PREPARING SAME, AND USE THEREOF IN PREPARATION OF ESTROGEN RECEPTOR DEGRADER” (Hinova Pharmaceuticals Inc., priority 2022, published 2026).

pIC50: −log10 of the molar value. Where two headings read alike, the source gives them in different places.

Common to all, as to format: cell-based
The target in experiment [1] is T1, ER (Homo sapiens, UniProt P03372).
T1 construct: T47D breast cancer cells were subcultured in cell culture medium; endogenous in cells; host or cells: T47D breast cancer cells
T1 sequence (P03372 1-595): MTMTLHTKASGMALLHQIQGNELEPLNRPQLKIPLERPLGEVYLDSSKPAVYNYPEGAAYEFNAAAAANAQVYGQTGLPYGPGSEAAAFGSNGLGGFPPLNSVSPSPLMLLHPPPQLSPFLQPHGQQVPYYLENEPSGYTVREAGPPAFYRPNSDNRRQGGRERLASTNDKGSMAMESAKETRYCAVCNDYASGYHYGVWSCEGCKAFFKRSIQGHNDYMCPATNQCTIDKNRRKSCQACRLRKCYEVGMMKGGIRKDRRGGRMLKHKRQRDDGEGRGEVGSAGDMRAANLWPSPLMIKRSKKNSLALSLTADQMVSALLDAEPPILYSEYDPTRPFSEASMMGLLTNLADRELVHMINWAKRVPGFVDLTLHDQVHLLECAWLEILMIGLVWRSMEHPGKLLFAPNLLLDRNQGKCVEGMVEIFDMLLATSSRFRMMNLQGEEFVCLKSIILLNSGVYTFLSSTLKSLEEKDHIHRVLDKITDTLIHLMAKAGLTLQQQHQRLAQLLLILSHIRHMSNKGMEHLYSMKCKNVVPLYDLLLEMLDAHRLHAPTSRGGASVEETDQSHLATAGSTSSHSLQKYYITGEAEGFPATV
As to the kind of experiment: Degradation activities on ER (Western blotting) in T47D breast cancer cells. Particulars: 24 h, Western blot. The protocol: T47D breast cancer cells were subcultured in cell culture medium, and the cells in good growth condition were seeded into 6-well plate at 2 mL/well, with 2.5×10^5 cells per well. The cells were incubated overnight in a 37° C. incubator under 5% CO2. The drug was prepared into 10 mM stock solution with dimethyl sulfoxide (DMSO). Prior to use, the stock solution was diluted with DMSO in a ratio of 1:3. […] of the diluted compound was added to the cell culture wells (to ensure a DMSO concentration of 0.1% in the culture system), and each concentration was repeated twice. The plate were gently shaken to mix. Additionally, the negative control wells (containing equal amount of DMSO) and the positive control wells were set up. After 24 hours of culture, the cells were lysed with RIPA cell lysis buffer to extract proteins, and the protein concentration was measured using a BCA kit. The protein loading buffer (5×) was added, and the plate was heated at 100° C. for 5 min. Then, the sample was stored at −20° C. […] of protein collected from each well was loaded onto a polyacrylamide gel for electrophoresis. The protein is transferred from the polyacrylamide gel to a PVDF membrane, blocked with 5% skim milk at room temperature for 1 h, and incubated overnight at 4° C. with primary antibodies Anti-ERα rabbit mAb (CST, Cat #: 8644S) and Anti-GAPDH rabbit mAb (CST, Cat #: 2118L). The membrane was washed three times with TBST solution, with 10 min for each time. The secondary antibody (horseradish peroxidase-labeled goat anti-rabbit IgG) was incubated at room temperature for 2 h, and then the membrane was washed three times with TBST solution, with 10 min for each time. Finally, ECL chromogenic solution was added for color development, and an automatic chemiluminescence instrument was used to take pictures. Images were collected and analyzed.
The degradation activities of the compounds according to the present invention towards ER, as tested by western blotting, are presented in Table 2
On the technique in general: In western blotting, separated proteins are transferred to a membrane and probed.

Experiment [2] has as its system MCF-7 breast cancer cells. As to the kind of experiment: Inhibition of proliferation of MCF-7 breast cancer cells (agarose culture, CellTiter-Glo 3D). Particulars: MCF-7 cells, 15 days of cultivation, read-out: IC50. The procedure: After 1.6% agarose and 0.7% agarose were sterilized at high temperature, they were cooled to around 50° C., and placed in a 42° C. water bath for later use. MCF-7 breast cancer cells were subcultured in complete cell culture medium, and cells in good growth condition were digested and counted for future use. 50 µL of 1.6% agarose mixed with 2× culture medium at a ratio of 1:1 was spread into the bottom of 96-well plate, and allowed to cool and solidify. 0.7% agarose was mixed with diluted cell suspension in a ratio of 1:1, and then 50 µL of the mixture of gel and cells was added to each well, with 2000 cells for each well; the mixture was allowed to cool and solidify at room temperature. 50 μL of culture medium was added to the plate containing cells, and the plate was placed in a 37° C., 5% CO2 incubator and cultured for 24 h. The drug was prepared into 10 mM stock solution with dimethyl sulfoxide (DMSO). The stock solution was diluted in a ratio of 1:3, to obtain 9 concentration gradients. Then, each concentration of compound solution was further diluted with culture medium in 1:250 (to ensure a DMSO concentration of 0.1% in the culture system). Two replicate wells was set for each concentration. 50 μL of the diluted compound solution was added to the cell culture wells (with final concentrations of 10 μM, 3.3 μM, 1.1 μM, 0.37 μM . . . ). The plate was gently shaken for mixing. Additionally, 3 negative control wells only containing cells and 3 blank control wells only containing culture medium were set up (each of the 6 wells was added with 50 μL of DMSO diluted with culture medium in a ration of 1:250). After 15 days of cultivation, the cell plates and CellTiter-Glo 3D Cell Viability were taken out and equilibrated to room temperature in advance. 80 μL of culture medium were aspirated and discarded from the cell plate, and 120 µL of CellTiter-Glo 3D Cell Viability solution was added to each well. The plates were centrifuged at 1200 rpm/min for 5 min, and then placed in the dark and kept for 25 min. The […] were measured using a multi-function microplate reader. The data were analyzed using the Dose-response-inhibition equation in GraphPad Prism8 software, and the IC50 values were obtained, as shown in Table 3.

For experiment [3], the target named is T1, ER. As to the kind of experiment: Degradation activities on ER (ELISA) in T47D breast cancer cells. Particulars: T47D cells, 24 h, ELISA; for DC50: concentration required to degrade 50% of the target protein; for Dmax: maximum percentage of target protein degraded. In outline:
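T47D cells were seeded at 2.5×10^4/well, grown 3 days at 37 °C, 5% CO2, then exposed 24 h to compound at 100, 25, 6.25, 1.56, 0.39 and […] nM (final). ER protein was quantified by sandwich ELISA with HRP/TMB read at 450 nm, and DC50 and Dmax came from dose-response fits.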
(In general: ELISA stands for enzyme-linked immunosorbent assay.)

For `O=C1CCC(N2Cc3cc(N4CCC5(CC4)CN(CC4CCN(c6ccc([C@@H]7c8ccc(O)cc8OC[C@@H]7c7ccccc7)cc6)CC4)C5)ccc3C2=O)C(=O)N1` (stereo partly drawn) [Example 58, 3-(5-(2-((1-(4-((3S,4R)-7-hydroxyl-3-phenyl-chroman-4-yl)phenyl)piperidin-4-yl)methyl)-2,7-diazaspiro[3.5]nonan-7-yl)-1-oxoisoinodolin-2-yl)piperidin-2,6-dione], the “Percentage reduction of ER” value on ER [1] (compound concentration 1 nM) is given as 76%. Further, in experiment [2] (Homo sapiens, MCF7, 360 h), the negative logarithm of the IC50 (pIC50) – broadly, −log10 of the IC50, conventionally taken in molar units – is above 8.00.
As to “3-(5-(7-((1-(2,6-difluoro-4-((3,4-cis)-3-(2-fluorophenyl)-7-hydroxychroman-4-yl)phenyl)piperidin-4-yl)methyl)-2,7-diazaspiro[3.5]nonane-2-yl)-1-oxoisoinodolin-2-yl)piperidin-2,6-dione [Example 33]”, the “Percentage reduction of ER” value on ER [1] (compound concentration 1 nM) worked out at 53%. In addition, the pIC50 in experiment [2] was above 8.00. In addition, on ER [3], the DC50 (as a rule, the concentration at which degradation of the target reaches its halfway point) is below 10 nM and the Dmax (in general, the greatest extent of degradation seen) is reported as “B (B: 75-50%)”.
Take `O=C1CCC(N2Cc3cc(N4CC5(CCN(CC6CCN(c7ccc([C@@H]8c9ccc(O)cc9OC[C@@H]8c8ccccc8)cc7F)CC6)CC5)C4)ccc3C2=O)C(=O)N1` (stereo partly drawn) [Example 88, 3-(5-(7-((1-(2-fluoro-4-(cis-7-hydroxyl-3-phenylchroman-4-yl)phenyl)piperidin-4-yl)methyl)-2,7-diazaspiro[3.5]nonane-2-yl)-1-oxoisoinodolin-2-yl)piperidin-2,6-dione]: on ER [1] (compound concentration 10 nM), the “Percentage reduction of ER” value turned out to be 47%. Besides, in experiment [2] (Homo sapiens, MCF7, 360 h), the pIC50 was above 8.00. Besides, at ER [3], the DC50 was below 10 nM. In addition, the Dmax on ER [3] (read-out: Dmax) fell in the range of 50 to 75%.
`O=C1CCC(N2Cc3cc(N4CC5CN(CC6CCN(c7ccc([C@@H]8c9ccc(O)cc9OC[C@@H]8c8ccccc8)cc7)CC6)CC5C4)ccc3C2=O)C(=O)N1` (stereo partly drawn) [Example 83, 3-(5-(5-((1-(4-((3S, 4R)-7-hydroxyl-3-phenylchroman-4-yl)phenyl)piperidin-4-yl)methyl)hexahydropyrrolo[3,4-c]pyrrole-2(1H)-yl)-1-oxoisoinodolin-2-yl)piperidin-2,6-dione]: the “Percentage reduction of ER” value on ER [1] (compound concentration 1 nM) is 87%. Also, the pIC50 in experiment [2] (Homo sapiens, MCF7, 360 h) is above 8.00.
`O=C1CCC(N2Cc3cc(N4CC5(CCN(CC6CCN(c7ccc([C@@H]8c9ccc(O)cc9CC[C@@H]8c8ccccc8)cc7)CC6)C5)C4)ccc3C2=O)C(=O)N1` (stereo partly drawn) [Example 31, 3-(5-(6-((1-(4-((1,2-cis)-6-hydroxyl-2-phenyl-1,2,3,4-tetrahydronaphthalen-1-yl)phenyl)piperidin-4-yl)methyl)-2,6-diazaspiro[3.4]octane-2-yl)-1-oxoisoinodolin-2-yl)piperidin-2,6-one]: on ER [1] (compound concentration 100 nM), the “Percentage reduction of ER” value was 50%. Further, the pIC50 in experiment [2] (Homo sapiens, MCF7, 360 h) is 7.30 to 7.96.
For the compound `O=C1CCC(N2Cc3cc(N4CC5(CCN(CC6CCN(c7ccc([C@@H]8c9ccc(O)cc9OC[C@@H]8c8ccccc8)cc7)CC6)CC5)C4)ccc3C2=O)C(=O)N1` (stereo partly drawn) [Example 79, 3-(5-(7-((1-(4-((3S,4R)-7-hydroxyl-3-phenylchroman-4-yl)phenyl)piperidin-4-yl)methyl)-2,7-diazaspiro[3.5]nonane-2-yl)-1-oxoisoinodolin-2-yl)piperidin-2,6-dione], the “Percentage reduction of ER” value on ER [1] (compound concentration 1 nM) amounted to 70%. For the same compound, the pIC50 in experiment [2] (Homo sapiens, MCF7, 360 h) is above 8.00. The compound further yielded a DC50 at ER [3] below 10 nM. Further, the Dmax at ER [3] (read-out: Dmax) lay in the range of 50 to 75%.
On to `O=C1CCC(N2Cc3cc(N4CCC5(CCN(CC6CCN(c7ccc([C@@H]8c9ccc(O)cc9OC[C@@H]8c8ccccc8)cc7)CC6)C5)C4)ccc3C2=O)C(=O)N1` (stereo partly drawn) [Example 8, 3-(5-(7-((1-(4-((3S,4R)-7-hydroxyl-3-phenyltryptophane-4-yl)phenyl)piperidin-4-yl)methyl)-2,7-diazaspiro[4.4]nonane-2-yl)-1-oxoisoinodolin-2-yl)piperidin-2,6-dione], for which the “Percentage reduction of ER” value on ER [1] (compound concentration 1 nM) is 47%. Moreover, the pIC50 in experiment [2] (Homo sapiens, MCF7, 360 h) is 7.30 to 7.96.
Consider `O=C1CCC(N2Cc3cc(N4CCC(CN5CC6(CCN(c7ccc([C@@H]8c9ccc(O)cc9CC[C@@H]8c8ccccc8)cc7)CC6)C5)CC4)ccc3C2=O)C(=O)N1` (some centres unmarked) [Example 11], for which, on ER [1] (compound concentration 10 nM), the “Percentage reduction of ER” value worked out at 84%. Moreover, in experiment [2] (Homo sapiens, MCF7, 360 h), the pIC50 is above 8.00. In addition, the DC50 at ER [3] is below 10 nM. Besides, the Dmax at ER [3] (read-out: Dmax) was 50 to 75%.
Consider `O=C1CCC(N2Cc3cc(N4CC5CN(CC6CCN(c7ccc([C@@H]8c9ccc(O)cc9CC[C@@H]8c8ccccc8)cc7)CC6)CC5C4)ccc3C2=O)C(=O)N1` (stereo partly drawn) [Example 26, 3-(5-(5-((1-(4-((1R,2S)-6-hydroxyl-2-phenyl-1,2,3,4-tetrahydronaphthalen-1-yl)phenyl)piperidin-4-yl)methyl)hexahydropyrrolo[3,4-c]pyrrole-2(1H)-yl)-1-oxoisoinodolin-2-yl)piperidin-2,6-dione], for which the “Percentage reduction of ER” value on ER [1] (compound concentration 1 nM) is on record as 56%. In addition, the pIC50 in experiment [2] (Homo sapiens, MCF7, 360 h) was above 8.00. Besides, on ER [3], the 50% degradation concentration (DC50) was below 10 nM. In addition, the greatest degradation seen (Dmax) on ER [3] (read-out: Dmax) lay within 50 to 75%.
As to `O=C1CCC(N2Cc3cc(N4CC5(CN(CC6CCN(c7ccc([C@@H]8c9ccc(O)cc9OC[C@@H]8c8ccccc8)cc7)CC6)C5)C4)ccc3C2=O)C(=O)N1` (stereo partly drawn) [Example 57, 3-(5-(6-((1-(4-((3S,4R)-7-hydroxyl-3-phenyl-chroman-4-yl)phenyl)piperidin-4-yl)methyl)-2,6-diazaspiro[3.3]heptan-2-yl)-1-oxoisoinodolin-2-yl)piperidin-2,6-one], the “Percentage reduction of ER” value on ER [1] (compound concentration 1 nM) is given as 77%. In addition, the pIC50 in experiment [2] (Homo sapiens, MCF7, 360 h) was above 8.00.
With `O=C1CCC(N2Cc3cc(N4CC5(CCN(CC6CCN(c7ccc([C@@H]8c9ccc(O)cc9CC[C@@H]8c8ccccc8)cc7)CC6)CC5)C4)ccc3C2=O)C(=O)N1` (some centres unmarked) [Example 4], the “Percentage reduction of ER” value on ER [1] (compound concentration 10 nM) is 74%. For the same compound, in experiment [2] (Homo sapiens, MCF7, 360 h), the pIC50 is 7.30 to 7.96.
